Values of other authors in patent US20250195565A1 (Fempharma Europe, LLC, priority 2018, published 2025).

Tested on: human vaginal smooth muscle cells
Details: zinc at a tissue level of 20 μM

In the case of `[Zn]` [zinc], the “effect on production of extracellular components (collagen, elastin) by the muscle cells” value is given as “beneficial effect”.
